Experimental data from paper PMC5974420, “Isospecific adenine DNA methyltransferases show distinct preferences towards DNA substrates” (Scientific Reports, 2018).

Columns and labels:
M.LlaCI = biological target: T1, M.LlaCI (Lactococcus lactis, UniProt O86267); assay: radiometric [3H]methyl transfer to DNA; type: biochemical; details: 0.2 µM [methyl-3H]SAM, 0.15 µM ds oligo (AAGCTT site), 10 mM Tris-HCl pH 7.0, 37 °C, 1 h; labelled compound
T1 construct: gene mllaci

M.HindIII = biological target: T2, M.HindIII (Haemophilus influenzae, UniProt P43871); details: 0.2 µM [methyl-3H]SAM, 0.15 µM ds oligo (AAGCTT site), 10 mM Tris-HCl pH 7.0, 37 °C, 1 h; labelled compound
T2 construct: gene hindIIIM

purified protein = substrate: C[S+](CC[C@H](N)C(=O)O)C[C@H]1O[C@@H](n2cnc3c(N)ncnc32)[C@H](O)[C@@H]1O; assay: purified protein; details: 10 µM unmethylated ds oligo AAGCTT1/AAGCTT2 (AAGCTT site), 10 mM Tris-HCl pH 7.0, 37 °C, 5 min, 135 nM enzyme, labelled compound

T2 sequence (P43871 whole entry): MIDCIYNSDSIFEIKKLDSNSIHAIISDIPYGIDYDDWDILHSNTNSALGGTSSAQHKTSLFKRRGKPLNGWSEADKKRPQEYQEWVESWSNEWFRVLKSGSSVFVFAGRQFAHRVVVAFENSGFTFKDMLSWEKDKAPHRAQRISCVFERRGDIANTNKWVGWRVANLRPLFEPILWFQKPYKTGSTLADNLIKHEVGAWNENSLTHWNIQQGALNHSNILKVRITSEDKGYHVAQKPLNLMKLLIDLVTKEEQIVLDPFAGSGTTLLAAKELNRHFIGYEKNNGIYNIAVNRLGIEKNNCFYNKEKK
T1 sequence (O86267 1-296): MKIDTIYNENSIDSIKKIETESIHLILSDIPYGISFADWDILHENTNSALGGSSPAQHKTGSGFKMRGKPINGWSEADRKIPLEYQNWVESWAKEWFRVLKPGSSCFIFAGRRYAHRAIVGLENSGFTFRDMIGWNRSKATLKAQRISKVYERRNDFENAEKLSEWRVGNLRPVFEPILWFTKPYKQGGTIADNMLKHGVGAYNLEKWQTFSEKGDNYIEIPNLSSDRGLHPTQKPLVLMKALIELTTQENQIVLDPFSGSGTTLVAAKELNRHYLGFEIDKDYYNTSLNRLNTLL

| Molecule | radiometric [3H]methyl transfer to DNA (M.LlaCI) | radiometric [3H]methyl transfer to DNA (M.HindIII) | Km (purified protein) [µM] |
| --- | --- | --- | --- |
| C[S+](CC[C@H](N)C(=O)O)C[C@H]1O[C@@H](n2cnc3c(N)ncnc32)[C@H](O)[C@@H]1O (stereo partly drawn) [AdoMet] | monitoring transfer of the radioactively labelled methyl groups from [^3H]AdoMet to DNA | monitoring transfer of the radioactively labelled methyl groups from [^3H]AdoMet to DNA | – |
| M.EcoVIII (Escherichia coli) (protein) MLNKIQLPDEIKKNTVTNGNSISLIKKLPSQYAHLILSDIPYGIGAEDWDVLHNNSNNAYLGSSPAQKNAGAIFKKRGKPINGWSEADKKIPLEYQQWCEEWATEWFRVLKPGASAIIFAGRRFSHRCICAMEDAGFNLRDIIAWMRVKAPHRAQRLSCVYERRGDTLNAEKWNGWRVGNLQPTFEPILWFSKPYKIGGTIADNAIIHGVGAYNQDAFVARNGKPENVITAGFSSNESGLHPTQKPVALMKTLIELTTQKGQLVIDPFSGSGSTLVAAKDLGRDYIGFEINPTYVETSIKRLNK | – | – | 0.27 ± 0.006 |
